Results: US12636368B2, “Ionizable lipids for nucleic acid delivery” (Global Life Sciences Solutions Canada ULC, priority 2019, dated 2026)
Where two headings read alike, the source gives them in different places.

Legend:
[1] = LNP size and PDI by dynamic light scattering; type: physicochemical
Method: After the lipid particles were made as described supra, particle size (hydrodynamic diameter of the particles) was determined by Dynamic Light Scattering (DLS) using a ZetaSizer™ Nano ZS™ (Malvern Instruments, UK). He/Ne laser tuned to 633 nm wavelength was used as the light source. Data were measured from the scattered intensity data conducted in backscattering detection mode (measurement angle=173). Measurements were an average of 10 runs of two cycles each per sample. Z-Average size was reported as the particle size, and is defined as the harmonic intensity averaged particle diameter.
(§1) Physical characteristics of lipid nanoparticle (LNP) compositions comprising compounds according to Formula (I) and that were manufactured on the NanoAssemblr® Spark and Benchtop, are shown in Tables 6 and 7 below. Size, size variation of the LNP (PDI), encapsulation efficiency, and pKa are shown. The physical characteristics of these LNP are important from a standpoint of stability, biodistribution, and cell membrane crossing. There was good encapsulation in all the formulations, with polydispersity (PDI) under 0.3. Size and PDI were measured using dynamic light scattering techniques, and nucleic acid encapsulation efficiency was calculated from a modified Quant-iT RiboGreen RNA assay.

[2] = Nucleic acid encapsulation efficiency by RiboGreen assay; type: physicochemical
Method: Messenger RNA or plasmid NAT was diluted using sodium acetate buffer to the required concentration. Lipid nucleic acid particle samples were then prepared by running both fluids using the NanoAssemblr® Spark instrument. […] The lipid nucleic acid particles made in the instrument were immediately diluted down with 48 μL Ca and Mg free 1×PBS at pH 7.4 in the aqueous output well. These nucleic acid lipid particles were immediately collected into microcentrifuge tubes containing 96 μL of Ca and Mg free 1×PBS at pH 7.4. Encapsulation efficiency was measured by a modified Ribogreen™ assay (Quanti-iT RiboGreen™ RNA assay kit, Fisher). Observed particle attributes were generally sized from 60-200 nm for mRNA, depending on lipid composition and method of production.
as §1

[3] = system: isolated primary human T cells; assay: GFP mRNA-LNP transfection of primary human T cells, flow cytometry; type: cell-based; conditions: for GFP Protein expression score: Human T cell: Table 8, star score, legend not given
Method: Reagents were from Stemcell Technologies unless otherwise stated. Tcells were isolated from a single donor. At 48 h following lipid particle mRNA exposure, the treated T cells were harvested by transferring the cell suspensions to pre-labeled 1.5 mL tubes and centrifuged 300×g at 4 degrees C. for 10 minutes. Supernatant was removed and the pellet resuspended in PBS. An amount of 0.5 ul of BD Horizon™ Fixable Viability Stain 575V™ (BD Biosciences), was added, and the mixture incubated in the dark for 10 minutes at RT. This stain binds to amines.
The cells were centrifuged again as before, then washed twice with 1 mL of stain buffer (BSA, BD Pharminigen), and the washed pellet was diluted in 100 μl BSA. The following antibodies were added to each tube of treated cells in 2 μl volumes: CD25, CD8, CD4, (PerCP-Cy™ 5.5 Mouse Anti Human CD25, BV786 Mouse Anti-Human CD8 Clone RPA-T8, APC-Cy™7 Mouse Anti-Human CD4 Clone SK3 (all from BD Pharmingen) with the exception of the controls: in the eGFP only sample and viability control, no antibody was added. In the single stain compensation tubes, only one antibody per tube was added.
The tubes were incubated at 4 degrees C. for 30 min, whereupon […] of stain buffer was added, and the cells were centrifuged again. Cells were washed once with 1 mL of stain buffer and spun down again as in step one. Cell pellets were resuspended in 1 mL of stain buffer and added to pre-labeled flow tubes with cell strainer caps (Corning Falcon). […]
GFP MFI was measured by flow cytometry 48 hours after LNP addition. T cells were isolated from whole blood using a negative isolation procedure (EasySep™ Human T Cell Isolation Kit, Stemcell Technologies). T cells were dosed with mRNA-LNPs 3 days after activation with 500 ng of encapsulated mRNA per 125,000 cells. The LNP were CT10 compositions with an N/P of 8. Transfection efficiency (upper graph) and MFI (lower graph) were measured by flow cytometry 48 h after LNP addition.

[4] = TNS assay, surface pKa of lipid nanoparticles; type: physicochemical
Method: In embodiments of the invention, the experimental pKa of formulated lipid nanoparticles comprising lipids in Table 1 is calculated using the 2-(p-toluidinyl)naphthalene-6-sulfonic acid (TNS) assay. The procedure for the TNS assay is described in Example 25.
The pKa of each cationic lipid was determined in lipid nanoparticles using an assay based on fluorescence of 6-(p-Toluidino)-2-naphthalenesulfonic acid sodium salt (TNS, Sigma Aldrich), which is a fluorescent probe for the conformational state of proteins5. Empty lipid nanoparticles comprising ionizable lipid in LM02 composition in distilled water at a concentration of 3.125 mM total lipid are formulated using NanoAssemblr® Spark™, and were then was characterized for LNP quality on the Zetasizer™ using a 30× dilution with 1×PBS in the low volume cuvette. Lipid nanoparticles were further diluted 4× using distilled water to 0.781 mM total lipid. TNS was prepared as a 25 μM stock solution in distilled water. Then 6.4 μL of diluted LNP samples of 0.781 mM total lipid were mixed with 10 μL of diluted TNS to a final volume of 250 μL with buffer containing 10 mM HEPES, 10 mM MES, 10 mM NH4OAc and 130 mM NaCl where the pH ranged from 3 to 9 in 0.5 pH increments.
Samples were mixed thoroughly, and the fluorescence intensity was measured at room temperature in a BioTek™ Synergy™ H1 Hybrid Multi-Mode Monochromator™ Fluorescence Microplate Reader using excitation and emission wavelengths of 321 nm and 445 nm respectively. A sigmoidal best fit analysis was applied to the fluorescence data using GraphPad Prism™ software, and the pKa was measured as the pH at half-maximal fluorescence intensity.

[5] = Table 6, GFP-encoded LNPs, CT10, N/P 8
[6] = Table 7, EPO mRNA LNPs, LM02, N/P 6
[7] = Table 1, formulated lipid nanoparticles, TNS assay, read-out: Exp. pKa

Row | SMILES | Diameter (Z. ave, nm) [1, 6] [nm] | Polydispersity Index (PDI) [1, 6] | Encapsulation Efficiency (%) [2, 6] [%] | pKa [4, 7] | pKa ([4]; Table 8, read-out: Exp.pKa) | further results
1 | CCCCCCCCC1CC1CCCCCCCC(=O)O[C@@H]1[C@@H](OC(=O)CCCCCCCC2CC2CCCCCCCC)CO[C@@H]1COC(=O)C1(C)CCN(C)CC1 (mixture of isomers) [PNI 541] | 73.8 | 0.06 | 97.1 | 6.46 | 6.46 | Diameter (Z. ave, nm) [1, 5]: 109.4 nm; Polydispersity Index (PDI) [1, 5]: 0.28; Encapsulation Efficiency (%) [2, 5]: 73.5%; amount of protein produced (MFIs) compared with MC3 [3]: better than MC3; protein expression (GFP MFI) compared with MC3 ([3]; FIG. 5, CT10, N/P 8, 500 ng mRNA per 125,000 cells, 3 days after activation, 48 h): higher levels of protein expression than MC3; amount of protein produced (MFI) in human T cells compared with MC3 ([3]; summary): better than MC3
2 | CCCCC/C=C\C/C=C\CCCCCCCC(=O)O[C@@H]1[C@@H](OC(=O)CCCCCCC/C=C\C/C=C\CCCCC)CO[C@@H]1COC(=O)CC1CCN(C)C1 (mixture of isomers) [PNI 538] | 67.0 | 0.11 | 98.7 | 6.79 | 6.79 | –
3 | CCCCC/C=C\C/C=C\CCCCCCCC(=O)O[C@H]1COC(COC(=O)C23CCN(CC2)CC3)[C@@H]1OC(=O)CCCCCCC/C=C\C/C=C\CCCCC (stereo in doubt) [PNI 573] | – | – | – | 7.79 | – | –
4 | CCCCCCCCC(CCCCCC)C(=O)O[C@@H]1[C@@H](OC(=O)C(CCCCCC)CCCCCCCC)CO[C@@H]1COC(=O)CCN(C)C (mixture of isomers) [PNI 535] | 54.2 | 0.11 | 82.2 | 4.99 | 4.99 | Diameter (Z. ave, nm) [1, 5]: 133.1 nm; Polydispersity Index (PDI) [1, 5]: 0.07; Encapsulation Efficiency (%) [2, 5]: 91.7%; GFP Protein expression score: Human T cell [3]: Not Active
5 | CCCCCCCCC1CC1CCCCCCCC(=O)O[C@@H]1[C@@H](OC(=O)CCCCCCCC2CC2CCCCCCCC)CO[C@@H]1COC(=O)CCN(C)C (mixture of isomers) [PNI 342] | 58.2 | 0.04 | 97.2 | 6.11 | 6.11 | –
6 | CCCCCCCCC1CC1CCCCCCCC(=O)O[C@@H]1[C@@H](OC(=O)CCCCCCCC2CC2CCCCCCCC)CO[C@@H]1COC(=O)C1CCN(CC)CC1 (stereo in doubt) [PNI 577] | – | – | – | 6.45 | – | –
7 | CCCCC/C=C\C/C=C\CCCCCCCC(=O)O[C@H]1COC(COC(=O)CN2CCN(C)CC2)[C@@H]1OC(=O)CCCCCCC/C=C\C/C=C\CCCCC (mixture of isomers) [PNI 574] | – | – | – | 6.66 | – | –
8 | CCCCCCCCC1CC1CCCCCCCC(=O)O[C@@H]1[C@@H](OC(=O)CCCCCCCC2CC2CCCCCCCC)CO[C@@H]1COC(=O)CC1CCCCN1C (stereo in doubt) [PNI 578] | – | – | – | 5.87 | – | –
9 | CCCCC/C=C\C/C=C\CCCCCCCC(=O)O[C@@H]1[C@@H](OC(=O)CCCCCCC/C=C\C/C=C\CCCCC)CO[C@@H]1COC(=O)CCCCN(C)C (racemic) [PNI 122] | 102.4 | 0.15 | 99.3 | 7.45 | 7.45 | GFP Protein expression score: Human T cell [3]: Toxic
10 | CCCCC/C=C\C/C=C\CCCCCCCC(=O)O[C@@H]1[C@@H](OC(=O)CCCCCCC/C=C\C/C=C\CCCCC)CO[C@@H]1COC(=O)CCN(C)C (racemic) [PNI 321] | 60.0 | 0.09 | 94.9 | 5.62 | 5.62 | Diameter (Z. ave, nm) [1, 5]: 68.6 nm; Polydispersity Index (PDI) [1, 5]: 0.07; Encapsulation Efficiency (%) [2, 5]: 92.4%
11 | CC/C=C\CC1C(CC(=O)OCCC(CCCCCCCC)OC(=O)C(CCCCCC)CCCCCCCC)CCC1OC(=O)C1(C)CCN(C)CC1 (stereo not shown) [PNI-565] | – | – | – | – | – | amount of protein produced (MFIs) compared with MC3 [3]: better than MC3
12 | CCCCCCCCC1CC1CCCCCCCC(=O)O[C@@H]1[C@@H](OC(=O)CCCCCCCC2CC2CCCCCCCC)CO[C@@H]1COC(=O)C1CCN(C2CC2)CC1 (stereo in doubt) [PNI 576] | – | – | – | 4.24 | – | –
13 | CCCCCCCCC(CCCCCC)C(=O)O[C@@H]1[C@@H](OC(=O)C(CCCCCC)CCCCCCCC)CO[C@@H]1COC(=O)CCCN(C)C (stereo in doubt) [PNI 580] | – | – | – | 5.69 | – | –
14 | CCCCCC/C=C\COC(=O)CCCCCCC(=O)O[C@@H]1[C@@H](OC(=O)CCCCCCC(=O)OC/C=C\CCCCCC)CO[C@@H]1COC(=O)CCN(C)C [PNI 532] | 144.3 | 0.15 | 37.3 | 5.97 | 5.97 | –
15 | CCCCC/C=C\C/C=C\CCCCCCCC(=O)O[C@@H]1[C@@H](OC(=O)CCCCCCC/C=C\C/C=C\CCCCC)CO[C@@H]1COC(=O)Cc1cn(C)cn1 (racemic) [PNI 336] | 64.3 | 0.06 | 89.8 | 4.57 | 4.57 | Diameter (Z. ave, nm) [1, 5]: 79.6 nm; Polydispersity Index (PDI) [1, 5]: 0.07; Encapsulation Efficiency (%) [2, 5]: 86.6%
16 | CCCCCCCCCCCCCC(=O)O[C@@H]1[C@@H](OC(=O)CCCCCCCCCCCCC)CO[C@@H]1COC(=O)CCN(C)C [PNI 344] | – | – | – | 6.93 | 6.93 | –
17 | CCCCCCCCCCCC(=O)O[C@@H]1[C@@H](OC(=O)CCCCCCCCCCC)CO[C@@H]1COC(=O)CCN(C)C (racemic) [PNI 534] | 75.0 | 0.15 | 89.4 | 6.42 | 5.97 | Diameter (Z. ave, nm) [1, 5]: 107.1 nm; Polydispersity Index (PDI) [1, 5]: 0.29; Encapsulation Efficiency (%) [2, 5]: 49.3%
18 | CCCCCCCCC(CCCCCC)C(=O)O[C@@H]1[C@@H](OC(=O)C(CCCCCC)CCCCCCCC)CO[C@@H]1COC(=O)C1(C)CCN(C)CC1 (stereo in doubt) [PNI 579] | – | – | – | 5.32 | – | –
19 | CCCCC/C=C\C/C=C\CCCCCCCC(=O)O[C@H]1COC(COC(=O)C2CCCN(C)C2)[C@@H]1OC(=O)CCCCCCC/C=C\C/C=C\CCCCC (stereo in doubt) [PNI 575] | – | – | – | 5.51 | – | –
20 | CCCCCCCCCCCCCC(=O)O[C@@H]1[C@@H](OC(=O)CCCCCCCCCCCCC)CO[C@@H]1COC(=O)CCCCN(C)C (racemic) [PNI 120] | – | – | – | 7.71 | 7.7 | GFP Protein expression score: Human T cell [3]: Toxic
